Molecular target: T1, human TPO (Homo sapiens, UniProt P07202)
T1 construct: expressed in transfected cells; host or cells: HEK293T (HEK-TPOA7 clone), whole-cell lysate in 0.1% sodium deoxycholate
T1 sequence (P07202 19-933): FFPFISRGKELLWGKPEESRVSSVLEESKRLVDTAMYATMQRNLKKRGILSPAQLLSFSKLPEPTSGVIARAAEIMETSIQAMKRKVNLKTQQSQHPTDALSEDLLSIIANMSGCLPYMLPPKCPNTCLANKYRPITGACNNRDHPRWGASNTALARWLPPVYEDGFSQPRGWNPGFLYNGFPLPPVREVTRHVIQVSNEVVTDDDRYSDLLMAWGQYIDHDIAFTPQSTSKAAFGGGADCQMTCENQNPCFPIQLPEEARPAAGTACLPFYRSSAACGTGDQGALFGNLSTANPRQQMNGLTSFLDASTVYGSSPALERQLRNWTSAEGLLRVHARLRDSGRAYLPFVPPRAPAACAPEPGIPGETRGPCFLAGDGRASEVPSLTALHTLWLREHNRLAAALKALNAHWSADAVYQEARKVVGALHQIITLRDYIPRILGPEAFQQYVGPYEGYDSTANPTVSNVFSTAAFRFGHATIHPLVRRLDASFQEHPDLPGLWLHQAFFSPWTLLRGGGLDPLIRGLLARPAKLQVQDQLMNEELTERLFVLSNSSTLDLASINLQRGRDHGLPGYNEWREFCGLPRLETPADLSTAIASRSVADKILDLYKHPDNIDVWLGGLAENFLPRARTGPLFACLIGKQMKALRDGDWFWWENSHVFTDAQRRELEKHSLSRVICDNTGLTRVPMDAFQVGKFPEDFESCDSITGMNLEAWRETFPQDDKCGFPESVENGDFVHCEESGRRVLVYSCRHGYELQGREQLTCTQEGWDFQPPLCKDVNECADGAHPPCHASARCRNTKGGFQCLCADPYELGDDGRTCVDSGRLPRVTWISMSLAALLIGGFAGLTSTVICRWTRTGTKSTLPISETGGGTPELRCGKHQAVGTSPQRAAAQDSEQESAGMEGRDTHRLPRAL
Test: standard Amplex UltraRed (AUR) TPO assay, HEK-TPOA7 cell lysate, fluorescence
Format: biochemical
Conditions: no modification, read-out: IC50 (± standard deviation)
Procedure: Briefly, the cells were washed with phosphate-buffered saline (PBS), scraped, resuspended in PBS, and centrifuged for 5 min at 150 rcf. […] Lysed cells were centrifuged for 5 min at 12,000 rcf to extract the soluble protein fraction. The cell lysates were kept at − 80 °C for longer-term storage.

`Oc1cc(Cl)ccc1Oc1ccc(Cl)cc1Cl` [TCS, Triclosan] showed an IC50 of 199 µM.

Reference: article PMC13043538, “In vitro thyroperoxidase inhibition assessment by LC-ICP-MS-based L-tyrosine iodination assay: comparison with Amplex Ultrared assay and its modifications” (Archives of Toxicology, 2026)
